{
  "source": "patent US12036190B2",
  "about": "“Methods and compositions for the treatment of cytoplasmic glycogen storage disorders” (Duke University, priority 2015, dated 2024)",
  "key": {"[1]": {"tested_on": "G6pc siRNA knockdown AML-12 cells", "settings": "Oil Red O, duplicate", "from_the_text": "In brief, a wide array of drugs was selected, including those that modulate autophagy via the […] pathway, those that do so through AMPK modulation to act through mTORC1, and those using yet-undetermined pathways. Analysis of additional literature led to the selection of three concentrations of each compound to be tested in cell culture using the G6pc siRNA knockdown AML-12 mouse hepatocyte cell line model of GSD Ia as an initial screen for the drugs.\nDrug concentrations were chosen based on similarity to published concentrations in either cell culture models resulting in target effects or autophagy, or in vivo extracellular fluid concentrations following animal treatments. The latter case is noted with the fluid type. Concentrations used in our in vitro AML-12 cell culture treatments are listed as the low, medium, and high concentrations that were screened.\nThe first test using AML-12 cells was the Oil Red 0 stain to examine the presence of lipid vacuoles in cells given the treatments.\nG6pc siRNA knockdown AML-12 cells were given three different doses of each drug treatment. After 72 hours of growth, the media was changed to ketogenic media and appropriate quantities of each drug were added. This was performed in duplicate. Oil Red 0 staining was then performed and bright field images acquired at 10× magnification.\nDrug treatments at three doses each were performed on G6pc siRNA knockdown AML-12 cells. Following oil red 0 staining the whole plates were evaluated visually for reductions in lipid accumulation. Treatments were performed in duplicate. —/0/+/++/+++ indicates the degree of improvement, or lipid reduction, caused by the treatment, with + indicating positive benefits."}, "[2]": {"tested_on": "G6pc knockdown AML-12 cells", "assay": "LC3 Western blot of drug-treated G6pc knockdown AML-12 cells", "format": "cell-based, mouse", "settings": "24 hours; conditions with optimal effects in the Oil Red O screen", "description": "FIG. 27 illustrates LC3 Western blot of drug-treated G6pc knockdown AML-12 cells. Western blotting was performed on AML-12 cells incubated for 24 hours with the described drug conditions. LC3 was quantified and normalized against each condition's β-actin protein quantification.\nIn addition to Oil Red O staining, cells were analyzed via Western blots for restored LC3 expression for each drug, under the conditions that had optimal effects in the Oil Red O screen (FIG. 27). Since the Western antibody previously used successfully for rapamycin treatment LC3 blots had been discontinued by the manufacturer, we tested two alternative antibodies and chose the one from Cell Signaling Technologies because it gave the strongest signal-to-noise ratio under our experimental conditions.\nWestern blotting was performed on AML-12 cells incubated for 24 hours with the described drug conditions. LC3 was quantified and normalized against each condition's β-actin protein quantification."}, "autophagy": {"tested_on": "autophagy", "settings": "Table 4; drugs known to enhance autophagy; cited from earlier work"}, "[3]": {"settings": "in vivo extracellular fluid concentration; cited from earlier work"}},
  "data": [
    {"smiles": "NC(=O)N1c2ccccc2C=Cc2ccccc21", "note": "[Carbamazepine]", "values": [
      {"measurement": "Lipid Reduction Scoring, High dose", "setting": "[1]; high concentration of Table 6", "result": 0},
      {"measurement": "Lipid Reduction Scoring, Low dose", "setting": "[1]; low concentration of Table 6", "result": "+++"},
      {"measurement": "Lipid Reduction Scoring, Medium dose", "setting": "[1]; medium concentration of Table 6", "result": "+"},
      {"measurement": "LC3 normalized against β-actin (Western blot)", "setting": "[2]", "result": "increase in LC3 autophagic marker"},
      {"measurement": "Effect", "setting": "autophagy", "result": "Activated autophagy, reduced hepatosteatosis"},
      {"measurement": "Published Concentration, cerebrospinal fluid", "setting": "[3]", "result": "0.7 to 1.5", "unit": "µg/mL"}
    ]}
  ]
}
